# From article PMC3183052, “Immunoprotectivity of HLA-A2 CTL Peptides Derived from Respiratory Syncytial Virus Fusion Protein in HLA-A2 Transgenic Mouse” (PLoS ONE, 2011)
# How the values were obtained:
# [1] = system: pulmonary CD8+ T lymphocytes; test: Number of CD8+ T cells in the lungs by flow cytometry after RSV challenge; assay type: in vivo, mouse; conditions: day 4 post RSV infection; flow cytometry of lung homogenate
# Procedure: Whole lungs were perfused with 5 mL 1× PBS before excision. The isolated lung tissues were incubated with 1 µg/mL collagenase for 30 min before homogenizing with the iron mesh. The homogenate was centrifuged at 1,000 rpm for 10 min at 4°C to sediment the pulmonary cells. The cells were washed with 1× PBS and then resuspended in 1× PBS for further analysis by real-time RT-PCR and flow cytometry. For pulmonary IFN-γ detection, 5×10^6/mL cells were cultured with 10 U/mL recombinant IL-2 for 2 days and the supernatants were collected for ELISA.
# Figure 5 Induction of pulmonary IFN-γ and CTL activity in peptide immunized transgenic mice challenged with RSV. At day 4 post RSV infection, lung homogenates were prepared and the following were measured. (A) IFN-γ expression by ELISA, and (B) the number of CD8^+ T cells in the lungs by flow cytometry using PE-cy5-labeled anti-CD8 antibody. (C). Enumeration of CTL activity in the lungs of mice immunized with CD8 peptide epitopes and challenged with RSV. […] The cell mixtures were labeled with 7-AAD and analyzed by flow cytometry. Results are expressed as mean percentage of 7-AAD/CFSE positive cells normalized with un-pulsed DCs. […]
# IL-13 = test: Lung IL-13 expression by real-time RT-PCR after RSV challenge; assay type: in vivo, mouse; conditions: peptide in IFA s.c. twice, day 4 post challenge, normalized to GAPDH, six mice per group
# Procedure: To screen the immunodominance of epitopic peptide in the induction of RSV-F specific Th1/Th2 expression, HLA-A*0201 transgenic C57BL/6 mice were anesthetized with isoflurane and immunized with 1×10^7 pfu/50 µL of rAd-F0 or rAd-LacZ or 1×10^4 live RSV B1 via the intranasal (i.n.) route. Twenty days later, the mice were given booster immunization i.n. with the same dose. After 10 days of boost, mice were sacrificed and splenocytes were isolated for the cytokine ELISPOT assay. […] Mice body weight was monitored daily.
# Lung RNA (5 µg) was mixed with 10 nmole random primers and 2 units of […] reverse transcriptase (Invitrogen) and incubated at 94°C for 10 minutes, 37°C for 30 minutes, and then at 4°C. The resulting cDNA was subjected to quantitative PCR analysis (The LightCycler® 480 Real-Time PCR system) with RSV N specific primer pairs, forward: 5′-[…]-3′ and reverse: 5′-[…]-3′. Expression of mouse GAPDH gene in the tested samples was detected as internal control by using specific primer pairs, forward: 5′-[…]-3′ and reverse: 5′-[…]-3′. The number of cycles (Ct) required for the amplification of the N gene and GAPDH was calculated. The relative expression of the N gene was calculated as followed: the individual Ct (RSV N) obtained from peptide- or vehicle-immunized lung was normalized by the respective Ct (GAPDH), and then [drawing 3] was divided by the mean of [drawing 4] . […]
sequence,measurement,setting,value
"YMLTNSELL [peptide 14, HLA-A*0201-restricted 9-mer synthetic peptide from F protein of RSV-B1 strain]",pulmonary CD8+ T cell numbers vs vehicle immunization,[1],lower
same,lung IL-13 expression vs vehicle,IL-13,normal expression
